Test results from ChEMBL document CHEMBL2396621, “Design, synthesis and biological evaluation of 2-mercapto-3-phenethylquinazoline bearing anilide fragments as potential antitumor agents: molecular docking study” (2013).

Legend:
Assay type in all cases: functional
NCI-H322M = test: Cytotoxicity against human NCI-H322M cells assessed as growth inhibition at 10 uM after 48 hrs by coulter counter analysis; conditions: read-out: GI
NCI-H23 = test: Cytotoxicity against human NCI-H23 cells assessed as growth inhibition at 10 uM after 48 hrs by coulter counter analysis; conditions: NCI-H23, 48 h, read-out: GI
NCI-H226 = test: Cytotoxicity against human NCI-H226 cells assessed as growth inhibition at 10 uM after 48 hrs by coulter counter analysis; conditions: NCI-H226, 48 h, read-out: GI
HOP-62 = test: Cytotoxicity against human HOP62 cells assessed as growth inhibition at 10 uM after 48 hrs by coulter counter analysis; conditions: HOP-62, 48 h, read-out: GI
[1] = Cytotoxicity against human EKVX cells assessed as growth inhibition at 10 uM after 48 hrs by coulter counter analysis; conditions: read-out: GI
Hs-578T = test: Cytotoxicity against human Hs578T cells assessed as growth inhibition at 10 uM after 48 hrs by coulter counter analysis; conditions: read-out: GI
SN12C = test: Cytotoxicity against human SN12C cells assessed as growth inhibition at 10 uM after 48 hrs by coulter counter analysis; conditions: read-out: GI
ACHN = test: Cytotoxicity against human ACHN cells assessed as growth inhibition at 10 uM after 48 hrs by coulter counter analysis; conditions: read-out: GI
OVCAR-4 = test: Cytotoxicity against human OVCAR4 cells assessed as growth inhibition at 10 uM after 48 hrs by coulter counter analysis; conditions: OVCAR-4, 48 h, read-out: GI
UACC-62 = test: Cytotoxicity against human UACC62 cells assessed as growth inhibition at 10 uM after 48 hrs by coulter counter analysis; conditions: UACC-62, 48 h, read-out: GI
SK-MEL-28 = test: Cytotoxicity against human SK-MEL-28 cells assessed as growth inhibition at 10 uM after 48 hrs by coulter counter analysis; conditions: SK-MEL-28, 48 h, read-out: GI
M14 = test: Cytotoxicity against human M14 cells assessed as growth inhibition at 10 uM after 48 hrs by coulter counter analysis; conditions: M14, 48 h, read-out: GI
U-251 = test: Cytotoxicity against human U251 cells assessed as growth inhibition at 10 uM after 48 hrs by coulter counter analysis; conditions: U-251, 48 h, read-out: GI
SF-268 = test: Cytotoxicity against human SF268 cells assessed as growth inhibition at 10 uM after 48 hrs by coulter counter analysis; conditions: SF-268, 48 h, read-out: GI
HT-29 = test: Cytotoxicity against human HT-29 cells assessed as growth inhibition at 10 uM after 48 hrs by coulter counter analysis; conditions: HT-29, 48 h, read-out: GI
HL-60(TB) = test: Cytotoxicity against human HL-60(TB) cells assessed as growth inhibition at 10 uM after 48 hrs by coulter counter analysis; conditions: HL-60, 48 h, read-out: GI
MOLT-4 = test: Cytotoxicity against human MOLT4 cells assessed as growth inhibition at 10 uM after 48 hrs by coulter counter analysis; conditions: MOLT-4, 48 h, read-out: GI

Compound	inhibition of growth at 10 µM (NCI-H322M) [%]	inhibition of growth at 10 µM (NCI-H23) [%]	inhibition of growth at 10 µM (NCI-H226) [%]	inhibition of growth at 10 µM (HOP-62) [%]	inhibition of growth at 10 µM [1] [%]	inhibition of growth at 10 µM (Hs-578T) [%]	inhibition of growth at 10 µM (SN12C) [%]	inhibition of growth at 10 µM (ACHN) [%]	inhibition of growth at 10 µM (OVCAR-4) [%]	inhibition of growth at 10 µM (UACC-62) [%]	inhibition of growth at 10 µM (SK-MEL-28) [%]	inhibition of growth at 10 µM (M14) [%]	inhibition of growth at 10 µM (U-251) [%]	inhibition of growth at 10 µM (SF-268) [%]	inhibition of growth at 10 µM (HT-29) [%]	inhibition of growth at 10 µM (HL-60(TB)) [%]	inhibition of growth at 10 µM (MOLT-4) [%]
CCOC(=O)c1ccc(NC(=O)CSc2nc3ccccc3c(=O)n2CCc2ccccc2)cc1	23	13	25	45	34	33	< 10	21	10	29	14	21	28	33	12		
O=C(CSc1nc2ccccc2c(=O)n1CCc1ccccc1)Nc1ccccc1C(=O)O	19	26	26	49	25	45	< 10	34	23	21	17	12		33	11		
O=C(CSc1nc2ccccc2c(=O)n1CCc1ccccc1)Nc1cc(Cl)ccc1C(=O)O	< 10	< 10	< 10	< 10	20	< 10	< 10	< 10	< 10	< 10	< 10	< 10	< 10	< 10	< 10		
O=C(CSc1nc2ccccc2c(=O)n1CCc1ccccc1)Oc1ccccc1	25	14				< 10	16	10	59	19	< 10	13		16	< 10	11	23
O=C(CSc1nc2ccccc2c(=O)n1CCc1ccccc1)Oc1ccc(Cl)cc1	< 10	25	13	10	28	41	< 10	< 10	59	11	< 10	< 10	< 10	< 10	< 10		
COc1cc(OC(=O)CSc2nc3ccccc3c(=O)n2CCc2ccccc2)cc(OC)c1OC	11	< 10	16	< 10	36	< 10	10	10	< 10	23	< 10	< 10	26	< 10	< 10		
